Data on 20 molecules can be found in US8088763B2 (priority 2004, dated 2012).

One test concerns the target T1, 5HT-uptake (Rattus norvegicus, UniProt P31652).
T1 construct: synaptosomes were freshly isolated from areas of rats' brains
Put plainly: biochemical. The conditions noted are these: read-out: 5HT-uptake [10 μM], % inhibition.

A further test has as its target NA-uptake (Rattus norvegicus, UniProt Q63380). Put plainly: biochemical. The conditions noted are these: read-out: NA-uptake [10 μM], % inhibition.

Chain of NA-uptake (Q63380 1-617): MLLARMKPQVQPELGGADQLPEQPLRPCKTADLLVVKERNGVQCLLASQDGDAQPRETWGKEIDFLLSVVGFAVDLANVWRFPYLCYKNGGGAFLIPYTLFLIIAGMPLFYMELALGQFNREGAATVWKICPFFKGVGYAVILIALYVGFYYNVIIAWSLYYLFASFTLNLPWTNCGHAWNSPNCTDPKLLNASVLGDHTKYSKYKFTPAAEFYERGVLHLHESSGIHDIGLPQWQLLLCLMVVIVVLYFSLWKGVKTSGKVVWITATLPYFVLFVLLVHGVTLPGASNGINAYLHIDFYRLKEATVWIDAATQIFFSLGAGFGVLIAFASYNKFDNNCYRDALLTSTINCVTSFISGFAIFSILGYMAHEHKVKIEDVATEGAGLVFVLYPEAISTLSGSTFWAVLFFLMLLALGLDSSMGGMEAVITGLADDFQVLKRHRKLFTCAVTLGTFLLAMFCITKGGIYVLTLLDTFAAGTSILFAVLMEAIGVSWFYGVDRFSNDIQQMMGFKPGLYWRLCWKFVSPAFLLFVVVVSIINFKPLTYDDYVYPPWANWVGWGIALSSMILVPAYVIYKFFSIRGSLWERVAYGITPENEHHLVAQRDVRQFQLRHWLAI
T1 sequence (P31652 whole entry): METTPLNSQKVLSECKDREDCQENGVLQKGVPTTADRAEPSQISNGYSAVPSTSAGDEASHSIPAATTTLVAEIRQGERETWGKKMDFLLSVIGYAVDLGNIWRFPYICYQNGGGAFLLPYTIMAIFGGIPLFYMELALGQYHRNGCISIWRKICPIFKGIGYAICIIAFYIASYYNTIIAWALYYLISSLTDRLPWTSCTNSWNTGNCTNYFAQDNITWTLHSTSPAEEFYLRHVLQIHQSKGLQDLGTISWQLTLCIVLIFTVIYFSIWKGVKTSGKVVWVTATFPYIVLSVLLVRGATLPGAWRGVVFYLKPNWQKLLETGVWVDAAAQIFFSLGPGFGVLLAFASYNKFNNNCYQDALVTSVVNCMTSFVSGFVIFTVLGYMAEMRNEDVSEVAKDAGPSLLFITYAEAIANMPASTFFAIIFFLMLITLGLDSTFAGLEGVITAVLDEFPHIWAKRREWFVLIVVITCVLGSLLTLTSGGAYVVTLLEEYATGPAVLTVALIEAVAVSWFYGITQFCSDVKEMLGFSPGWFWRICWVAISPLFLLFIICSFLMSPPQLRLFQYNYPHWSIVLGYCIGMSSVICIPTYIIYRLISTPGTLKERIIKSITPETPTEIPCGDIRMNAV

As to `CN(C)C1(Cc2cccc(Cl)c2)CCC(NC(=O)CCC(=O)NCCc2ccccn2)CC1` (stereo not shown) [Example 12, N-[4-(3-chloro-benzyl)-4-dimethylamino-cyclohexyl]-N′-(2-pyridin-2-yl-ethyl)-succinamide], the results for the inhibition at 10 µM at 5HT-uptake and at NA-uptake were 92% and 95%, respectively.
Taken in the same sequence, the figures for `CN(CCc1c[nH]c2ccccc12)C(=O)CCC(=O)NC1CCC(Cc2ccc(Cl)cc2)(N(C)C)CC1` (stereo not shown) [Example 57, N-[4-(4-chloro-benzyl)-4-dimethylamino-cyclohexyl]-N′-[2-(1H-indol-3-yl)-ethyl]-N′-methyl-succinamide] were 93% and 100%.
For the molecule `CN(C)C1(Cc2ccc(Cl)cc2)CCC(NC(=O)CCC(=O)NCCc2cccc(F)c2)CC1` (stereo not shown) [Example 88, N-[4-(4-chloro-benzyl)-4-dimethylamino-cyclohexyl]-N′-[2-(3-fluoro-phenyl)-ethyl]-succinamide], the figures for the inhibition at 10 µM on 5HT-uptake and at NA-uptake were 97% and 102%, respectively.
In the case of `Cc1ccc(CC2(N(C)C)CCC(NC(=O)CCC(=O)NC(C)C(C)C)CC2)cc1` (stereo not shown) [Example 105, N-[4-dimethylamino-4-(4-methyl-benzyl)-cyclohexyl]-N′-(1,2-dimethyl-propyl)-succinamide], the inhibition (as a rule, the drop in the measured response relative to a control, in per cent) at 10 µM on 5HT-uptake worked out at 92%; at NA-uptake it was 90%.
Taken in the same sequence, the figures for `Cc1ccc(CC2(N(C)C)CCC(NC(=O)CCC(=O)N3CCC(CNC(=O)C(F)(F)F)CC3)CC2)cc1` (stereo not shown) [Example 51, N-[4-dimethylamino-4-(4-methyl-benzyl)-cyclohexyl]-4-oxo-4-{4-[(2,2,2-trifluoro-acetylamino)-methyl]-piperidin-1-yl}-butyramide] were 92% and 77%.
With `Cc1cnc(C(=O)N2CCN(C(=O)CCC(=O)NC3CCC(Cc4ccc(Cl)cc4)(N(C)C)CC3)CC2)cn1` (stereo not shown) [Example 14, N-[4-(4-chloro-benzyl)-4-dimethylamino-cyclohexyl]-4-[4-(5-methyl-pyrazin-2-carbonyl)-piperazin-1-yl]-4-oxo-butyramide], the inhibition at 10 µM was found to be 95% at 5HT-uptake and 78% at NA-uptake.
For the molecule `CCOC(=O)C(C)NC(=O)CCC(=O)NC1CCC(Cc2ccc(Cl)cc2)(N(C)C)CC1` (stereo not shown) [Example 7, 2-{3-[4-(4-chloro-benzyl)-4-dimethylamino-cyclohexylcarbamoyl]-propionylamino}-propanoic acid ethylester], the results for the inhibition at 10 µM on 5HT-uptake and on NA-uptake were 93% and 91%, respectively.
On the same counts, the results for `Cc1cccc(CC2(N(C)C)CCC(NC(=O)CCC(=O)NC(C)c3ccc(F)cc3)CC2)c1` (stereo not shown) [Example 112, N-[4-dimethylamino-4-(3-methyl-benzyl)-cyclohexyl]-N′-[1-(4-fluoro-phenyl)-ethyl]-succinamide] are 96% and 101%.
Regarding `COc1ccc(OC)c(CN2CCN(C(=O)CCCC(=O)NC3CCC(Cc4ccccc4)(N(C)C)CC3)CC2)c1` (stereo not shown) [Example 18, 5-[4-(2,5-dimethoxy-benzyl)-piperazin-1-yl]-5-oxo-valeric acid (4-benzyl-4-dimethylamino-cyclohexyl)-amide], the inhibition at 10 µM at 5HT-uptake was found to be 94%; on NA-uptake, 84%.
In the case of `Cc1cccc(CC2(N(C)C)CCC(NC(=O)CCC(=O)N3CCC(Cc4ccccc4)CC3)CC2)c1` (stereo not shown) [Example 103, 4-(4-benzyl-piperidin-1-yl)-N-[4-dimethylamino-4-(3-methyl-benzyl)-cyclohexyl]-4-oxo-butyramide], the inhibition at 10 µM at 5HT-uptake worked out at 94%; at NA-uptake, 108%.
As for `CN(C)C1(Cc2cccc(Cl)c2)CCC(NC(=O)CCC(=O)NCc2cc(Cl)ccc2Cl)CC1` (stereo not shown) [Example 133, N-[4-(3-chloro-benzyl)-4-dimethylamino-cyclohexyl]-N′-(2,5-dichloro-benzyl)-succinamide], the inhibition at 10 µM is 93% on 5HT-uptake and 97% on NA-uptake.
In the case of `CCOC(=O)C(C)NC(=O)CCC(=O)NC1CCC(Cc2cccc(Cl)c2)(N(C)C)CC1` (stereo not shown) [Example 30, 2-{3-[4-(3-chloro-benzyl)-4-dimethylamino-cyclohexylcarbamoyl]-propionylamino}-propanoic acid ethylester], the inhibition at 10 µM on 5HT-uptake was found to be 93%; at NA-uptake it was 96%.
For `Cc1ccc(CC2(N(C)C)CCC(NC(=O)CCC(=O)Nc3ccc(OCc4ccccc4)cc3)CC2)cc1` (stereo not shown) [Example 101, N-(4-benzyloxy-phenyl)-N′-[4-dimethylamino-4-(4-methyl-benzyl)-cyclohexyl]-succinamide], the inhibition at 10 µM came to 94% at 5HT-uptake and 77% at NA-uptake.
In the case of `C=CCOc1ccc(CN2CCN(C(=O)CCC(=O)NC3CCC(Cc4cccc(C)c4)(N(C)C)CC3)CC2)cc1` (stereo not shown) [Example 89, 4-[4-(4-allyloxy-benzyl)-piperazin-1-yl]-N-[4-dimethylamino-4-(3-methyl-benzyl)-cyclohexyl]-4-oxo-butyramide], the inhibition at 10 µM turned out to be 94% on 5HT-uptake and 98% at NA-uptake.
Taken in the same sequence, the figures for `CN(C)C1(Cc2ccc(Cl)cc2)CCC(NC(=O)CCC(=O)NC2CCN(Cc3ccc(C(F)(F)F)cc3)C2)CC1` (stereo not shown) [Example 98, N-[4-(4-chloro-benzyl)-4-dimethylamino-cyclohexyl]-N′-[1-(4-trifluoromethyl-benzyl)-pyrrolidin-3-yl]-succinamide] were 92% and 74%.
On the same counts, the results for `CN(C)C1(Cc2ccc(Cl)cc2)CCC(NC(=O)CCC(=O)N2CC=C(c3ccc(F)cc3)CC2)CC1` (stereo not shown) [Example 104, N-[4-(4-chloro-benzyl)-4-dimethylamino-cyclohexyl]-4-[4-(4-fluoro-phenyl)-3,6-dihydro-2H-pyridin-1-yl]-4-oxo-butyramide] are 93% and 84%.
Taken in the same sequence, the figures for `CCOc1ccc(N2CCN(C(=O)CCC(=O)NC3CCC(Cc4ccc(Cl)cc4)(N(C)C)CC3)CC2)cc1` (stereo not shown) [Example 16, N-[4-(4-chloro-benzyl)-4-dimethylamino-cyclohexyl]-4-[4-(4-ethoxy-phenyl)-piperazin-1-yl]-4-oxo-butyramide] were 97% and 86%.
As to `Cc1cccc(CC2(N(C)C)CCC(NC(=O)CCC(=O)N(C)CCc3c[nH]c4ccccc34)CC2)c1` (stereo not shown) [Example 111, N-[4-dimethylamino-4-(3-methyl-benzyl)-cyclohexyl]-N′-[2-(1H-indol-3-yl)-ethyl]-N′-methyl-succinamide], the inhibition at 10 µM was 96% on 5HT-uptake and 97% at NA-uptake.
With `COc1ccc(CNC(=O)CCC(=O)NC2CCC(Cc3cccc(C)c3)(N(C)C)CC2)cc1` (stereo not shown) [Example 85, N-[4-dimethylamino-4-(3-methyl-benzyl)-cyclohexyl]-N′-(4-methoxy-benzyl)-succinamide], the results for the inhibition at 10 µM on 5HT-uptake and on NA-uptake were 94% and 100%, respectively.
Consider `COc1cc(CN2CCN(C(=O)CCC(=O)NC3CCC(Cc4ccc(C)cc4)(N(C)C)CC3)CC2)cc2c1OCO2` (stereo not shown) [Example 4, N-[4-dimethylamino-4-(4-methyl-benzyl)-cyclohexyl]-4-[4-(7-methoxy-benzo[1,3]dioxol-5-ylmethyl)-piperazin-1-yl]-4-oxo-butyramide], for which the inhibition at 10 µM on 5HT-uptake was found to be 92%; at NA-uptake, 89%.
